Measurements as given in publication PMC4890880 (ACS infectious diseases, 2016).

Columns and labels:
HepG2-A16-CD81EGFP cells = settings: sheet "2nd round"; for IC50: read-out: Tox_IC50, HepG2 cytotoxicity
[1] = tested on: Plasmodium berghei (Pb-Luc) exoerythrocytic-stage parasites; settings: for normalised signal at concentration 10 (first series): concentration 10, first series of dose columns; for normalised signal at concentration 10 (second series): concentration 10, second series of dose columns; for IC50: read-out: PbLuc_IC50, Broad compounds, dose response top concentration 10; for IC50 / PbLuc_max_inhibition (%): sheet "2nd round"

SMILES	IC50 (HepG2-A16-CD81EGFP cells) [µM]	Tox_max_inhibition (%) (HepG2-A16-CD81EGFP cells)	normalised signal at concentration 0.000508053 (first series) [1]	normalised signal at concentration 0.000508053 (second series) [1]	normalised signal at concentration 0.00152416 (first series) [1]	normalised signal at concentration 0.00152416 (second series) [1]	normalised signal at concentration 0.00457247 (first series) [1]	normalised signal at concentration 0.00457247 (second series) [1]	normalised signal at concentration 0.0137174 (first series) [1]	normalised signal at concentration 0.0137174 (second series) [1]	normalised signal at concentration 0.0411523 (first series) [1]	normalised signal at concentration 0.0411523 (second series) [1]	normalised signal at concentration 0.123457 (first series) [1]	normalised signal at concentration 0.123457 (second series) [1]	normalised signal at concentration 0.37037 (first series) [1]	normalised signal at concentration 0.37037 (second series) [1]	normalised signal at concentration 1.11111 (first series) [1]	normalised signal at concentration 1.11111 (second series) [1]	normalised signal at concentration 3.33333 (first series) [1]	normalised signal at concentration 3.33333 (second series) [1]	other results
O=C(NCc1ccc2c(c1)OCO2)[C@@H]1[C@@H](CO)[C@@H]2Cn3c(cccc3=O)[C@H]1N2Cc1cncnc1 [BRD-K31004267-001-01-6]	> 10	14	0.9455	0.7294	0.9922	1.083	0.9907	0.8279	0.9424	0.9304	0.8128	1.152	0.8401	1.066	1.129	0.8899	0.9661	0.8895	0.7673	0.9284	normalised signal at concentration 10 (first series) [1]: 1.039; normalised signal at concentration 10 (second series) [1]: 0.9564; IC50 [1]: > 10 µM; PbLuc_max_inhibition (%) [1]: 27%
C[C@H](CO)N1C[C@H](C)[C@@H](CN(C)S(=O)(=O)c2ccc(F)cc2)OCCCC[C@H](C)Oc2ccc(N(C)C)cc2C1=O [BRD-K31169989-001-01-4]	> 10	13	0.9593	1.075	0.7705	0.9043	0.8601	0.8661	0.7407	1.136	1.052	0.8649	0.7251	0.9568	0.9029	0.9798	0.7471	0.8642	0.9659	0.7643	normalised signal at concentration 10 (first series) [1]: 0.5392; normalised signal at concentration 10 (second series) [1]: 0.607; IC50 [1]: > 10 µM; PbLuc_max_inhibition (%) [1]: 46%
